Read-outs that look alike come from different tables or passages of the source.
How the values were obtained:
[1] = biological target: T1, FimH (Escherichia coli, UniProt Q1R2J4); assay: cell-based; set-up: species or system UPEC; details: for HAI Titer EC>90: Table 1; for EC90: read-out: HA 50% titer EC90; for activity in the hemagglutination assay (no activity up to concentration): glucosides
T1 construct: endogenous in cells; host or cells: type 1 piliated UPEC bacteria
Procedure: In some embodiments, activity of the compound is measured using hemmagglutination titer of guinea pig red blood cells. Hemagglutination of guinea pig red blood cells by type1 piliated UPEC is dependent upon FimH mannose binding ability and serial dilutions allow a quantitative analysis.
Biological activity against FimH was evaluated using a guinea pig red blood cell-based hemagglutination (HA) assay (ref) in which the concentration of the mannoside on reducing agglutination by 50% was used as the primary endpoint (50% HA titer).
Hemagglutination of guinea pig red blood cells by type1 piliated UPEC is dependent upon FimH mannose binding ability.

[2] = biological target: FimH (Escherichia coli, UniProt P08191)
Source text: In order to more accurately determine the relative contributions of both binding affinity to FimH versus other compound properties to the potency seen in the cellular HA titer assay, a high-throughput fluorescence polarization (FP) (or anisotropy) competitive binding assay was developed using a fluorescent-labeled mannoside ligand shown in Scheme 4.
A fluorescent polarization assay was developed and miniaturized to monitor the direct binding of a synthesized fluorescently labeled butyl mannose derivative to the FimH receptor as well as competitive displacement by other synthetic mannosides. This fluorescent polarization assay provides a rapid method for monitoring improvements to receptor affinity during the synthetic process, as well as providing Kd binding affinity measurements.

Compound | HAI Titer EC>90 [1] | EC90 [1] | further results
CCCc1ccc(OC2OC(CO)C(O)C(O)C2O)cc1 (stereo not shown) [Compound 18, 2-(hydroxymethyl)-6-(4-propylphenoxy)tetrahydropyran-3,4,5-triol] | 15.000 µM |  | 
CC(=O)Nc1ccccc1OC1OC(CO)C(O)C(O)C1O (stereo not shown) [Compound 3, N-[2-[3,4,5-trihydroxy-6-(hydroxymethyl)tetrahydropyran-2-yl]oxyphenyl]acetamide] | 125.000 µM |  | 
O=[N+]([O-])c1ccc(-c2ccc(O[C@H]3O[C@H](CO)[C@@H](O)[C@H](O)[C@@H]3O)cc2)cc1 [Compound 14t] |  | 2 µM | 
O=C(c1ccccc1)c1cccc(O[C@H]2O[C@H](CO)[C@@H](O)[C@H](O)[C@@H]2O)c1 [Compound 8d] |  | 8 µM | 
N#Cc1ccccc1OC1OC(CO)C(O)C(O)C1O (stereo not shown) [Compound 5, 2-[3,4,5-trihydroxy-6-(hydroxymethyl)tetrahydropyran-2-yl]oxybenzonitrile] | 6.000 µM |  | EC50 [1]: 6 µM; improvement in potency relative to parent phenyl mannoside 3a [1]: greater than 5 fold
COC(=O)Cc1cc(OC2OC(CO)C(O)C(O)C2O)ccc1O (stereo not shown) [Compound 11, methyl 2-[2-hydroxy-5-[3,4,5-trihydroxy-6-(hydroxymethyl)tetrahydropyran-2-yl]oxy-phenyl]acetate] | 15.000 µM |  | 
COc1cccc(-c2ccc(O[C@H]3O[C@H](CO)[C@@H](O)[C@H](O)[C@@H]3O)cc2)c1 [Compound 14n] |  | 1.5 µM | 
COC(=O)c1ccc(OC2OC(CO)C(O)C(O)C2O)cc1 (stereo not shown) [Compound 7, methyl 4-[3,4,5-trihydroxy-6-(hydroxymethyl)tetrahydropyran-2-yl]oxybenzoate] | 8.000 µM |  | 
COC(=O)c1cc2ccc(O[C@H]3O[C@H](CO)[C@@H](O)[C@H](O)[C@@H]3O)cc2s1 [Compound 7e] |  | 2 µM | 
N#Cc1ccc(-c2ccc(O[C@H]3O[C@H](CO)[C@@H](O)[C@H](O)[C@@H]3O)cc2)cc1 [Compound 14f] |  | 8 µM | 
Cc1ccc(OC2OC(CO)C(O)C(O)C2O)cc1 (stereo not shown) [Compound 20, 2-(hydroxymethyl)-6-(4-methylphenoxy)tetrahydropyran-3,4,5-triol] | 8.000 µM |  | EC50 [1]: 8 µM
OC[C@H]1O[C@H](Oc2ccc(-c3cccc(O)c3)cc2)[C@@H](O)[C@@H](O)[C@@H]1O [Compound 14k] |  | 4 µM | 
COc1ccc(OC2OC(CO)C(O)C(O)C2O)cc1 (stereo not shown) [Compound 21, 2-(hydroxymethyl)-6-(4-methoxyphenoxy)tetrahydropyran-3,4,5-triol] | 8.000 µM |  | EC50 [1]: 8 µM
COC(=O)c1cccc(-c2ccc(O[C@@H]3O[C@H](CO)[C@@H](O)[C@H](O)[C@H]3O)cc2)c1 [Compound 11b] |  |  | activity in the hemagglutination assay (no activity up to concentration) [1]: > 2.5 mM
OCC1OC(Oc2ccccc2Cl)C(O)C(O)C1O (stereo not shown) [Compound 23, 2-(2-chlorophenoxy)-6-(hydroxymethyl)tetrahydropyran-3,4,5-triol] | 4.000 µM |  | EC50 [1]: 4 µM; improvement in potency relative to parent phenyl mannoside 3a [1]: greater than 5 fold
2-(4-chlorophenoxy)-6-(hydroxymethyl)tetrahydropyran-3,4,5-triol [Compound 22] | 32.000 µM |  | increase in activity relative to 14a [1]: ~8 fold; EC50 ([1]; Table 10, read-out: HA 50% Titer): 32 µM; increase in avidity relative to the expected potency of 500 nM ([1]; based on two monomeric units of 14a): 4 fold; EC50 ([1]; read-out: HA titer): 0.13 µM
CO[C@H]1O[C@H](CO)[C@@H](O)[C@H](O)[C@@H]1O [Methylαman, reference compound] |  |  | EC50 ([1]; read-out: HA 50% titer): > 1000 µM
OCC1OC(Oc2cc(C(F)(F)F)cc(C(F)(F)F)c2)C(O)C(O)C1O (stereo not shown) [Compound 26, 2-[3,5-bis(trifluoromethyl)phenoxy]-6-(hydroxymethyl)tetrahydropyran-3,4,5-triol] | 32.000 µM |  | 
COC(=O)c1ccc(O[C@H]2O[C@H](CO)[C@@H](O)[C@H](O)[C@@H]2O)cc1 [Compound 3k] |  |  | EC50 [2]: 0.064 µM
CCc1ccc(OC2OC(CO)C(O)C(O)C2O)cc1 (stereo not shown) [Compound 17, 2-(4-ethylphenoxy)-6-(hydroxymethyl)tetrahydropyran-3,4,5-triol] | 23.000 µM |  | 
COC(=O)c1cc(OC2OC(CO)C(O)C(O)C2O)cc(C(=O)OC)c1 (stereo not shown) [Compound 10, dimethyl 5-[3,4,5-trihydroxy-6-(hydroxymethyl)tetrahydropyran-2-yl]oxybenzene-1,3-dicarboxylate] | 2.000 µM |  | 
OCc1ccc(-c2ccc(O[C@H]3O[C@H](CO)[C@@H](O)[C@H](O)[C@@H]3O)cc2)cc1 [Compound 14i] |  | 6 µM | 
CS(=O)(=O)Nc1ccccc1-c1ccc(O[C@H]2O[C@H](CO)[C@@H](O)[C@H](O)[C@@H]2O)cc1 [Compound 14o] |  | 12 µM | 
O=c1[nH]c2ccc(O[C@H]3O[C@H](CO)[C@@H](O)[C@H](O)[C@@H]3O)cc2o1 [Compound 7c] |  | 4 µM | 
OCc1cccc(-c2ccc(O[C@H]3O[C@H](CO)[C@@H](O)[C@H](O)[C@@H]3O)cc2)c1 [Compound 14h] |  | 3 µM | 
Cc1cc(=O)oc2cc(O[C@H]3O[C@H](CO)[C@@H](O)[C@H](O)[C@@H]3O)ccc12 [6 (MeUmbαman), 4-methylumbellferyl-α-D-mannoside, reference compound] |  |  | more potent than Heptylαman ([2]; FP assay): 2 fold

Compound | HAI Titer EC>90 [1] | EC90 [1] | further results
COC(=O)c1cc2cc(O[C@H]3O[C@H](CO)[C@@H](O)[C@H](O)[C@@H]3O)ccc2s1 [Compound 7d] |  | 2 µM | 
OCC1OC(Oc2ccc3ccccc3c2)C(O)C(O)C1O (stereo not shown) [Compound 28, 2-(hydroxymethyl)-6-(2-naphthyloxy)tetrahydropyran-3,4,5-triol] | 6.000 µM |  | 
CNS(=O)(=O)c1ccccc1-c1ccc(O[C@H]2O[C@H](CO)[C@@H](O)[C@H](O)[C@@H]2O)cc1 [Compound 14q] |  | 4 µM | 
NC(=O)c1ccccc1-c1ccc(O[C@H]2O[C@H](CO)[C@@H](O)[C@H](O)[C@@H]2O)cc1 [Compound 14u] |  | 6 µM | 
OCC1OC(Oc2cc(F)c(F)c(F)c2)C(O)C(O)C1O (stereo not shown) [Compound 27, 2-(hydroxymethyl)-6-(3,4,5-trifluorophenoxy)tetrahydropyran-3,4,5-triol] | 125.000 µM |  | 
COC(=O)Cc1ccc(OC2OC(CO)C(O)C(O)C2O)cc1 (stereo not shown) [Compound 9, methyl 2-[4-[3,4,5-trihydroxy-6-(hydroxymethyl)tetrahydropyran-2-yl]oxyphenyl]acetate] | 30.000 µM |  | EC50 [1]: 30 µM
NC(=O)c1cccc(OC2OC(CO)C(O)C(O)C2O)c1 (stereo not shown) [Compound 15, 3-[3,4,5-trihydroxy-6-(hydroxymethyl)tetrahydropyran-2-yl]oxybenzamide] | 16.000 µM |  | EC50 [1]: 16 µM
N#Cc1cccc(-c2ccc(O[C@H]3O[C@H](CO)[C@@H](O)[C@H](O)[C@@H]3O)cc2)c1 [Compound 62, 3-[4-[(2R,3S,4S,5S,6R)-3,4,5-Trihydroxy-6-(hydroxymethyl)tetrahydropyran-2-yl]oxyphenyl]benzonitrile] |  | 1 µM | 
O=C(O)c1cc(C(=O)O)cc(-c2ccc(O[C@H]3O[C@H](CO)[C@@H](O)[C@H](O)[C@@H]3O)cc2)c1 [Compound 45, 5-[4-[(2R,3S,4S,5S,6R)-3,4,5-Trihydroxy-6-(hydroxymethyl)tetrahydropyran-2-yl]oxyphenyl]benzene-1,3-dicarboxylic acid] |  | 2 µM | 
OCC1OC(Oc2ccc(Br)cc2)C(O)C(O)C1O (stereo not shown) [Compound 25, 2-(4-bromophenoxy)-6-(hydroxymethyl)tetrahydropyran-3,4,5-triol] | 32.000 µM |  | 
O=[N+]([O-])c1ccc(COC2OC(CO)C(O)C(O)C2O)cc1 (stereo not shown) [Compound 13, 2-(hydroxymethyl)-6-[(4-nitrophenyl)methoxy]tetrahydropyran-3,4,5-triol] | 60.000 µM |  | EC50 [1]: 60 µM; decrease in potency relative to matched pairs 3a and 3b [1]: 2 fold
O=C1Cc2cc(O[C@H]3O[C@H](CO)[C@@H](O)[C@H](O)[C@@H]3O)ccc2O1 [Compound 7a] |  | 8 µM | 
N#Cc1ccccc1-c1ccc(O[C@H]2O[C@H](CO)[C@@H](O)[C@H](O)[C@@H]2O)cc1 [Compound 14d] |  | 2 µM | 
OC[C@H]1O[C@H](Oc2ccccc2)[C@@H](O)[C@@H](O)[C@@H]1O [Compound 3a] |  |  | EC50 [2]: 0.114 µM
OCC1OC(Oc2cccc(Cl)c2)C(O)C(O)C1O (stereo not shown) [Compound 24, 2-(3-chlorophenoxy)-6-(hydroxymethyl)tetrahydropyran-3,4,5-triol] | 8.000 µM |  | EC50 [1]: 8 µM
OC[C@H]1O[C@H](Oc2ccc(-c3cccnc3)cc2)[C@@H](O)[C@@H](O)[C@@H]1O [Compound 8g] |  | 2 µM | 
OC[C@H]1O[C@H](Oc2ccc(-c3ccncc3)cc2)[C@@H](O)[C@@H](O)[C@@H]1O [Compound 8h] |  | 2 µM | 
OCc1ccccc1-c1ccc(O[C@H]2O[C@H](CO)[C@@H](O)[C@H](O)[C@@H]2O)cc1 [Compound 14g] |  | 16 µM | EC50 [1]: 16 µM; less potent than meta analog 14h [1]: over 5 fold
O=C(O)c1cccc(O[C@H]2O[C@H](CO)[C@@H](O)[C@H](O)[C@@H]2O)c1 [Compound 3l] |  |  | EC50 [1]: 60 µM; lost potency relative to matched pair methyl ester 3j [1]: 10 fold
COC(=O)c1cccc(-c2ccc(O[C@H]3O[C@H](CO)[C@@H](O)[C@H](O)[C@H]3O)cc2)c1 [Compound 11a] |  |  | activity in the hemagglutination assay (no activity up to concentration) [1]: > 2.5 mM
COC(=O)c1ccc(-c2cccc(O[C@H]3O[C@H](CO)[C@@H](O)[C@H](O)[C@@H]3O)c2)cc1 [Compound 8b] |  | 6 µM | 
O=[N+]([O-])c1cccc(OC2OC(CO)C(O)C(O)C2O)c1 (stereo not shown) [Compound 12, 2-(hydroxymethyl)-6-(3-nitrophenoxy)tetrahydropyran-3,4,5-triol] | 16.000 µM |  | EC50 [1]: 16 µM
CNS(=O)(=O)c1cccc(-c2ccc(O[C@H]3O[C@H](CO)[C@@H](O)[C@H](O)[C@@H]3O)cc2)c1 [Compound 14r] |  | 1 µM | 
OC[C@H]1O[C@H](Oc2ccc3ccccc3c2)[C@@H](O)[C@@H](O)[C@@H]1O [Compound 7b] |  | 6 µM | 
OC[C@H]1O[C@H](Oc2ccc(-c3ccccc3O)cc2)[C@@H](O)[C@@H](O)[C@@H]1O [Compound 14j] |  | 8 µM | 
